{"source": "patent US11549950B2", "about": "“Cryptic metabolites and method for activating silent biosynthetic gene clusters in diverse microorganisms” (The Trustees of Princeton University, priority 2017, dated 2023)", "assay_in_all_cases": "Antibacterial bioactivity (MIC) of keratinimicins, Table 1", "key": {"S. pyogenes": {"system": "S. pyogenes", "type": "cell-based, Streptococcus pyogenes", "description": "(§1) To determine antibacterial and antiviral performance, assays were performed. In one example, antibacterial assays were carried out by Micromyx, LLC in accordance with methods from the Clinical and Laboratory Standards Institute. Minimal inhibitory concentrations were determined with the following strains: S. aureus ATCC 29213, S. aureus MMX 2011, S. pneumoniae ATCC 49619, S. pyogenes MMX 6253, S. agalactiae MMX 6189, E. faecalis ATCC 29212, E. faecalis MMX 486, B. subtilis ATCC 6633, E. coli ATCC 25922, K. pneumoniae MMX 214, P. aeruginosa ATCC 27853, A. baumannii ATCC 19606, V. cholerae BAA-2163, C. difficile ATCC 700057, and B. fragilis ATCC 25285.\n(§2) These compounds are bioactive. In some instances, the compounds show activity against gram-positive bacteria. For example, although they may also show activity against gram-negative targets, the bioactivity of Keratinimicin B and C (FIGS. 21B and 21C) were tested against various gram-positive targets."}, "S. aureus MRSA": {"system": "S. aureus MRSA", "type": "cell-based, Staphylococcus aureus", "description": "as §1, §2"}, "S. aureus MSSA": {"system": "S. aureus MSSA", "type": "cell-based, Staphylococcus aureus", "description": "as §1, §2"}, "E. faecalis VSE": {"system": "E. faecalis VSE", "type": "cell-based, Enterococcus faecalis", "description": "as §1, §2"}, "E. faecalis VRE": {"system": "E. faecalis VRE", "type": "cell-based, Enterococcus faecalis", "description": "as §1, §2"}, "S. agalactiae": {"system": "S. agalactiae", "type": "cell-based, Streptococcus agalactiae", "description": "as §1, §2"}, "S. pneumoniae": {"system": "S. pneumoniae", "type": "cell-based, Streptococcus pneumoniae", "description": "as §1, §2"}, "C. difficile": {"system": "C. difficile", "type": "cell-based, Clostridium difficile", "description": "as §1, §2"}}, "data": [{"smiles": "CO[C@H]1[C@H](C)O[C@@H](O[C@@H]2c3ccc(c(Cl)c3)Oc3cc4cc(c3O[C@@H]3O[C@H](CO)[C@@H](O)[C@H](O)[C@H]3O[C@H]3C[C@H](N)[C@@H](O)C(C)O3)Oc3ccc(cc3)[C@@H](O)[C@@H](NC(=O)[C@H](N)c3ccc(O)c(Cl)c3)C(=O)N[C@@H](Cc3ccccc3)C(=O)N[C@H]4C(=O)N[C@H]3C(=O)N[C@@H]2C(=O)N[C@H](C(=O)O)c2cc(O)cc(O)c2-c2cc3ccc2O)C[C@@H]1N", "note": "(some centres unmarked) [Keratinimicin B]", "values": [{"measurement": "Bioactivity (minimal inhibitory concentration)", "setting": "S. pyogenes", "result": 0.5, "unit": "µg/mL"}, {"measurement": "Bioactivity (minimal inhibitory concentration)", "setting": "S. aureus MRSA", "result": 4, "unit": "µg/mL"}, {"measurement": "Bioactivity (minimal inhibitory concentration)", "setting": "S. aureus MSSA", "result": 8, "unit": "µg/mL"}, {"measurement": "Bioactivity (minimal inhibitory concentration)", "setting": "E. faecalis VSE", "result": 4, "unit": "µg/mL"}, {"measurement": "Bioactivity (minimal inhibitory concentration)", "setting": "E. faecalis VRE", "result": ">64", "unit": "µg/mL"}, {"measurement": "Bioactivity (minimal inhibitory concentration)", "setting": "S. agalactiae", "result": 1, "unit": "µg/mL"}, {"measurement": "Bioactivity (minimal inhibitory concentration)", "setting": "S. pneumoniae", "result": 0.25, "unit": "µg/mL"}, {"measurement": "Bioactivity (minimal inhibitory concentration)", "setting": "C. difficile", "result": 0.5, "unit": "µg/mL"}]}]}
